Laboratory results: patent publication US20040101544A1, “Method for detoxifying a carbohydrate containing solution” (priority 2000, published 2004)
One block for each molecule: values may come before it.

Assays:
[1] = system: mouse fibroblasts cells L-929; settings: alone or in mixtures at the concentrations found in PD fluids; cited from earlier work
[2] = system: mouse fibroblasts cells L-929; experiment: In vitro assay for cytotoxicity: inhibition of cell growth (ICG); type: cell-based
Description: Carbohydrate containing medical solutions used for peritoneal dialysis were mixed with 1 part of a cell growth medium and 10% (volume/volume) fetal calf serum was added (Wieslander et al., 1991, Kidney Int. 40:77-79). The basal cytotoxicity of the medical solution used for peritoneal dialysis was determined on mouse fibroblasts cells L-929 (CCL-1; ATTC, Rockville, Md., USA) as described earlier (Wieslander et al. 1993, Advances in Peritoneal Dialys, 9:31-35) and expressed as inhibition of cell growth (ICG).
Mouse fibroblast cells (L-929) were grown and incubated according to Järkelid et al., 2000, ATLA 28, 415-425. Inhibition of cell growth was determined for a 4% PD fluid with the following composition
Additionally dose response curves were made in MEM (Minimal Essential Medium).
The results from incubation of L-929 cells with synthetic 3,4-dideoxy-glucosone-3-ene added in MEM are presented in table 1 below showing the values plotted in FIG. 5. The 4% PD solution was autoclaved while the PD fluid was sterile filtered. The PD solutions were tested twice (% ICG1 and % ICG2) and the mean ICG was calculated.

[3] = Biological effects of 3,4-dideoxy-glucosone-3-ene (test not specified)

Molecule: O=CC(=O)C[C@H](O)[C@H](O)CO [3-deoxyglucosone]
toxicity in the L-929 system [1]: None of these five listed compounds show toxicity

Molecule: O=CC=O [glyoxal]
toxicity in the L-929 system [1]: None of these five listed compounds show toxicity

Molecule: C=O [formaldehyde]
toxicity in the L-929 system [1]: None of these five listed compounds show toxicity

concentration below which no biological effects seem to be present [3]: < 2 μM
Molecule: 3,4-dideoxy-glucosone-3-ene [3,4-DGE]
% ICG1 ([2]; 5 μM 3,4-DGE in MEM): 24% | % ICG2 ([2]; 5 μM 3,4-DGE in MEM): 12% | % ICG3 ([2]; 5 μM 3,4-DGE in MEM): 31% | mean % ICG ([2]; 5 μM 3,4-DGE in MEM): 21,5% | % ICG1 ([2]; 15 μM 3,4-DGE in MEM): 47% | % ICG2 ([2]; 15 μM 3,4-DGE in MEM): 49% | % ICG3 ([2]; 15 μM 3,4-DGE in MEM): 44% | mean % ICG ([2]; 15 μM 3,4-DGE in MEM): 46,5% | % ICG1 ([2]; 52 μM 3,4-DGE in MEM): 92% | % ICG2 ([2]; 52 μM 3,4-DGE in MEM): 80% | % ICG3 ([2]; 52 μM 3,4-DGE in MEM): 88% | mean % ICG ([2]; 52 μM 3,4-DGE in MEM): 84% | % ICG2 ([2]; 2,5 μM 3,4-DGE in MEM): 5% | % ICG3 ([2]; 2,5 μM 3,4-DGE in MEM): 20% | mean % ICG ([2]; 2,5 μM 3,4-DGE in MEM): 12,5% | % ICG1 ([2]; 10,4 μM 3,4-DGE in MEM): 36% | % ICG2 ([2]; 10,4 μM 3,4-DGE in MEM): 51% | % ICG3 ([2]; 10,4 μM 3,4-DGE in MEM): 42% | mean % ICG ([2]; 10,4 μM 3,4-DGE in MEM): 46,5% | % ICG1 ([2]; 24,3 μM 3,4-DGE in MEM): 63% | % ICG2 ([2]; 24,3 μM 3,4-DGE in MEM): 65% | % ICG3 ([2]; 24,3 μM 3,4-DGE in MEM): 58% | mean % ICG ([2]; 24,3 μM 3,4-DGE in MEM): 61,5% | EC50 ([2]; dose response curves in MEM, L-929 cells): 16 µM | toxicity in cytotoxicity test ([2]; fibroblast cells): toxic to fibroblast cells

Molecule: CC=O [acetaldehyde]
toxicity in the L-929 system [1]: None of these five listed compounds show toxicity
